Source: US20120109286A1, “ANTIMICROBIAL COATINGS” (priority 2009, published 2012)

What was measured:
Details in all cases: 24 h at 37° C.
P. aeruginosa = assay: Zone of inhibition around monomer pellets; assay type: cell-based, Pseudomonas aeruginosa
S. aureus = assay: Zone of inhibition around monomer pellets or powder; assay type: cell-based, Staphylococcus aureus
Description: (§1) ZSB powder was used to show antimicrobial efficacy.

M. luteus = assay: as above; assay type: cell-based, Micrococcus luteus
Description: as §1

O=C1C=CC(=O)[N]1[Ag]([P+](c1ccccc1)(c1ccccc1)c1ccccc1)[P+](c1ccccc1)(c1ccccc1)c1ccccc1 [PSSM, Phosphine Stabilised Silver Maleimide]
zone of inhibition (P. aeruginosa): more blurred inhibition zones
zone of inhibition (S. aureus): sharp ring of inhibition
zone of inhibition (M. luteus): sharp ring of inhibition
